Reference: PubChem BioAssay (NCI)
Several values for one entry are separate records, joined by “and”; a condition that tells them apart may be missing. Identical values can stand only once.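 Compound exposure: 48 hours, 5 concentrations, 96-well plates. GI50 is the concentration that inhibits growth by half. Definition used: TGI = concentration required for complete inhibition of growth.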

Assays:
Assay in all cases: growth of human tumour cells (NCI), 48 h
SNB-19 CNS = system: SNB-19 CNS
IGROV1 ovarian = system: IGROV1 ovarian
EKVX NSCLC = system: EKVX NSCLC
COLO 205 colon = system: COLO 205 colon
HCT-116 colon = system: HCT-116 colon
BT-549 breast = system: BT-549 breast
SW-620 colon = system: SW-620 colon
SK-MEL-5 melanoma = system: SK-MEL-5 melanoma
SNB-75 CNS = system: SNB-75 CNS
SN12C renal = system: SN12C renal

SMILES | TGI (SNB-19 CNS) | TGI (IGROV1 ovarian) | TGI (EKVX NSCLC) | TGI (COLO 205 colon) | TGI (HCT-116 colon) | TGI (BT-549 breast) | TGI (SW-620 colon) | TGI (SK-MEL-5 melanoma) | TGI (SNB-75 CNS) | TGI (SN12C renal) | GI50 (SNB-19 CNS) | GI50 (IGROV1 ovarian) | GI50 (EKVX NSCLC) | GI50 (COLO 205 colon) | GI50 (HCT-116 colon) | GI50 (BT-549 breast) | GI50 (SW-620 colon) | GI50 (SK-MEL-5 melanoma) | GI50 (SNB-75 CNS) | GI50 (SN12C renal)
O=C(O)c1[nH]c2c([N+](=O)[O-])cc([N+](=O)[O-])cc2c1C(=O)O | > 100 µM | > 100 µM | > 100 µM | > 100 µM | > 100 µM | > 100 µM | > 100 µM | > 100 µM | > 100 µM | > 100 µM | – | – | – | – | – | – | – | – | – | –
C[C@@H](Oc1cc(-c2cnn(C3CCNCC3)c2)cnc1N)c1c(Cl)cc(F)cc1Cl | 14.3 µM | 16.7 µM | 17.3 µM | 2.45 µM | 5.16 µM | 13 µM | 8.13 µM | 2.89 µM | 4.38 µM | 13.3 µM | 3.46 µM | 3.31 µM | 3.72 µM | 0.857 µM | 1.12 µM | 4.08 µM | 0.893 µM | 1.51 µM | 1.65 µM | 1.95 µM
Cc1cc(OCc2nn(CN3CCN(C)CC3)c(=S)n2/N=C/c2ccc(F)cc2)ccc1Cl | 33.8 µM | 30.5 µM | 43 µM | 25.7 µM | 32.3 µM | 32.7 µM | 35.7 µM | 30.6 µM | 32.2 µM | 31 µM | 17.6 µM | 16.2 µM | 20.4 µM | 12.6 µM | 17.8 µM | 17.6 µM | 18.7 µM | 16.7 µM | 13.4 µM | 16.9 µM
CC(=N/NC(N)=S)/C(C)=N/NC(N)=S | > 100 µM | > 100 µM | > 100 µM | > 100 µM | > 100 µM | > 100 µM | > 100 µM | > 100 µM | > 100 µM | > 100 µM | – | – | – | – | – | – | – | – | – | –
O=c1[nH]c2ccccc2n1C1CCN(CCOc2ccccc2)CC1 | > 100 µM | > 100 µM | 58.4 µM | 45.8 µM | > 100 µM | > 100 µM | > 100 µM | 42 µM | > 100 µM | > 100 µM | 47.8 µM | 91.7 µM | 7.05 µM | 14.5 µM | 10.7 µM | 34.2 µM | 50.1 µM | 16 µM | 23.7 µM | 34.3 µM
C1=C\CCCCN2CC[C@H]3[C@H](CCCC/C=C\CCCN4C[C@@H](CCCCC/1)C[C@@H]3C4)C2 | 30.5 µM | 23.1 µM | 25 µM | 5.75 µM | 20.8 µM | 27.3 µM | 19.4 µM | 16.7 µM | 18.9 µM | 23.9 µM | 16.4 µM | 9.27 µM | 11.8 µM | 2.25 µM | 4.33 µM | 13.4 µM | 6.96 µM | 4.75 µM | 3.99 µM | 11.6 µM
CC(=N\O)/C(C)=N/O.CC(=N\O)/C(C)=N/O.[Fe].[NH2-].c1c[nH]cn1 | > 100 µM | > 100 µM | > 100 µM | > 100 µM | > 100 µM | > 100 µM | > 100 µM | > 100 µM | > 100 µM | > 100 µM | > 100 µM | > 100 µM | > 100 µM | > 100 µM | > 100 µM | > 100 µM | > 100 µM | > 100 µM | > 100 µM | > 100 µM
O=C(O)c1cc(Cl)cc(Cc2cc(Cl)cc(C(=O)O)c2O)c1O | > 100 µM | > 100 µM | > 100 µM | > 100 µM | > 100 µM | > 100 µM | > 100 µM | > 100 µM | > 100 µM | > 100 µM | – | – | – | – | – | – | – | – | – | –
NC(Cc1c[nH]c2cccc(F)c12)C(=O)O (centres undefined) | > 4500 µM | – | > 4500 µM | 944 µM | 1000 µM | 873 µM | 1020 µM | 54.7 µM and 458 µM | 2790 µM | > 4500 µM | 1120 µM | 43.8 µM | 778 µM | 43.6 µM and 302 µM | 43.8 µM and 305 µM | 151 µM | 47.7 µM and 279 µM | 20.1 µM and 154 µM | 77.2 µM and 726 µM | 959 µM
CCCCC[C@H]1C/C=C2/C(=O)C(Cl)=C[C@@H]2C/C=C\CCCC(=O)O1 | 2.68 µM | 1.24 µM | 1.37 µM | 0.975 µM | 0.57 µM | 0.825 µM | 1.3 µM | 0.812 µM | 6.09 µM | 0.905 µM | 0.59 µM | 0.444 µM | 0.56 µM | 0.438 µM | 0.201 µM | 0.421 µM | 0.181 µM | 0.437 µM | 1.76 µM | 0.333 µM
C=C1C(=O)O[C@H]2[C@H]1CC/C(COC(=O)/C=C\C(=O)NCc1ccc(Cn3c(=O)sn(-c4ccc(Cl)cc4)c3=O)cc1)=C\CC[C@@]1(C)O[C@@H]21 | 1.67 µM | 1.36 µM | 1.58 µM | 1.59 µM | 0.708 µM | 1.51 µM | 0.915 µM | 1.52 µM | 1.31 µM | 1.63 µM | 0.831 µM | 0.638 µM | 0.809 µM | 0.564 µM | 0.144 µM | 0.591 µM | 0.242 µM | 0.825 µM | 0.623 µM | 0.666 µM
CCOC(=O)CCSC1=CC(=O)c2nc3ccccc3c3ccnc1c23 | 51.6 µM | > 100 µM | 76.4 µM | > 100 µM | 76.6 µM | 34.3 µM | 41.6 µM | 30.4 µM | > 100 µM | 31.8 µM | 20.5 µM | 22.7 µM | 29.4 µM | 24.9 µM | 17.1 µM | 17.1 µM | 13.9 µM | 13.4 µM | 39 µM | 15.7 µM
CC(C)(C)OC(=O)N1Cc2cc3ccccc3nc2C1CO (centres undefined) | > 100 µM | > 100 µM | > 100 µM | > 100 µM | > 100 µM | > 100 µM | > 100 µM | > 100 µM | > 100 µM | > 100 µM | > 100 µM | > 100 µM | > 100 µM | > 100 µM | > 100 µM | > 100 µM | > 100 µM | > 100 µM | > 100 µM | > 100 µM
Oc1cc(O)c2c(c1)OC(c1ccc(O)c(O)c1)C(O)C2c1c(O)cc(O)c2c1OC(c1ccc(O)c(O)c1)C(O)C2 (centres undefined) | > 100 µM | > 100 µM | > 100 µM | > 100 µM | > 100 µM | > 100 µM | > 100 µM | > 100 µM | > 100 µM | > 100 µM | – | – | – | – | – | – | – | – | – | –
Cc1ccc(C2C3Cc4ccccc4C3=NN2c2ccc(S(=O)(=O)NC(=O)Nc3ccccc3)cc2)cc1 (centres undefined) | > 100 µM | 19.7 µM | 33 µM | 53.3 µM | 49.1 µM | 34.5 µM | 26 µM | 25.7 µM | 47.8 µM | 26.9 µM | 25.4 µM | 1.15 µM | 13.7 µM | 18.6 µM | 3.4 µM | 14.7 µM | 13.1 µM | 13.1 µM | 17.9 µM | 14 µM
Cc1ccc(NC2=CC(=O)C(=O)c3ccccc32)cc1 | 4.96 µM | 12.9 µM | 18.9 µM | 3.1 µM | 9.13 µM | 3.31 µM | 4.01 µM | 2.67 µM | 2.11 µM | 3.32 µM | 2.09 µM | 2.73 µM | 4 µM | 1.65 µM | 2.23 µM | 1.73 µM | 1.92 µM | 1.38 µM | 0.779 µM | 1.65 µM
Cc1cn2c(/C=C3\C(=O)N(C)c4ccc(Cl)cc43)c(C)nc2s1 | 92.9 µM | > 100 µM | > 100 µM | > 100 µM | 14.6 µM | > 100 µM | > 100 µM | 19.5 µM | 7.32 µM | > 100 µM | 4.25 µM | 2.99 µM | 9.9 µM | 3.47 µM | 2.55 µM | 6.4 µM | 4.27 µM | 1.34 µM | 2.52 µM | 5.24 µM
OCC1OC(n2cnc3c(NCc4ccccc4O)ncnc32)C(O)C1O (centres undefined) | > 100 µM | 10.5 µM | > 100 µM | > 24.4 µM | 3.4 µM | 2.29 µM | > 33.9 µM | 15.3 µM | 18.3 µM | 20 µM | 1.39 µM | 0.649 µM | 1.03 µM | 0.524 µM | 0.131 µM | 0.177 µM | 0.291 µM | 1.84 µM | 1.74 µM | 0.178 µM
CC(=O)/C=C/c1ccc(N(CCO)Cc2ccc(C(C)(C)C)cc2)cc1 | 241 µM | 260 µM | 162 µM | 129 µM | 125 µM | 178 µM | 259 µM | 146 µM | 200 µM | 157 µM | 116 µM | 112 µM | 31 µM | 29.3 µM | 30 µM | 47.8 µM | 119 µM | 39.9 µM | 54.7 µM | 38.7 µM
OCC1OC(n2cnc3c(NCc4ccco4)ncnc32)C(O)C1O (centres undefined) | > 100 µM | 13.9 µM | 81.7 µM | 7.83 µM | 1.59 µM | 2.64 µM | > 100 µM | > 74.1 µM | > 28.1 µM | > 100 µM | 3.99 µM | 2.09 µM | 4.73 µM | 2.25 µM | 0.338 µM | 0.421 µM | 0.849 µM | 9.36 µM | 1.73 µM | 0.386 µM
